Results: ChEMBL document CHEMBL5303573, “Mapping human microbiome drug metabolism by gut bacteria and their genes” (Nature, 2019)

test: The drug is tested on Bacteroides vulgatus strain: ATCC8482 for biotransformation. The drug concentrations were measured before and after a 12-h incubation by liquid-chromatography-coupled mass spectrometry (LC–MS); conditions: phocaeicola vulgatus, 2 µM

Compound | Bacterial Biotransformation
CS(=O)(=O)O.O.O.O.O=C1Cc2cc(CCN3CCN(c4nsc5ccccc45)CC3)c(Cl)cc2N1 [ZIPRASIDONE MESYLATE] | Compound metabolized
Cc1cn([C@H]2C[C@H](N=[N+]=[N-])[C@@H](CO)O2)c(=O)[nH]c1=O [ZIDOVUDINE] | Compound metabolized
Nc1c2c(nc3ccccc13)CCCC2 [TACRINE] | Compound NOT metabolized
COc1ccc(CCN(C)CCCC(C#N)(c2ccc(OC)c(OC)c2)C(C)C)cc1OC (stereo not drawn) | Compound metabolized

test: The drug is tested on Bacteroides uniformis strain: ATCC8492 for biotransformation. The drug concentrations were measured before and after a 12-h incubation by liquid-chromatography-coupled mass spectrometry (LC–MS); conditions: 2 µM

Compound | Bacterial Biotransformation
CS(=O)(=O)O.O.O.O.O=C1Cc2cc(CCN3CCN(c4nsc5ccccc45)CC3)c(Cl)cc2N1 [ZIPRASIDONE MESYLATE] | Compound NOT metabolized
Nc1c2c(nc3ccccc13)CCCC2 [TACRINE] | Compound NOT metabolized
COc1ccc(CCN(C)CCCC(C#N)(c2ccc(OC)c(OC)c2)C(C)C)cc1OC (stereo not drawn) | Compound metabolized

test: The drug is tested on Dorea formicigenerans strain: ATCC27755 for biotransformation. The drug concentrations were measured before and after a 12-h incubation by liquid-chromatography-coupled mass spectrometry (LC–MS); conditions: 2 µM

Compound | Bacterial Biotransformation
CS(=O)(=O)O.O.O.O.O=C1Cc2cc(CCN3CCN(c4nsc5ccccc45)CC3)c(Cl)cc2N1 [ZIPRASIDONE MESYLATE] | Compound NOT metabolized
Nc1c2c(nc3ccccc13)CCCC2 [TACRINE] | Compound NOT metabolized
COc1ccc(CCN(C)CCCC(C#N)(c2ccc(OC)c(OC)c2)C(C)C)cc1OC (stereo not drawn) | Compound NOT metabolized

test: The drug is tested on Alistipes indistinctus strain: DSM22520 for biotransformation. The drug concentrations were measured before and after a 12-h incubation by liquid-chromatography-coupled mass spectrometry (LC–MS); conditions: 2 µM

Compound | Bacterial Biotransformation
CS(=O)(=O)O.O.O.O.O=C1Cc2cc(CCN3CCN(c4nsc5ccccc45)CC3)c(Cl)cc2N1 [ZIPRASIDONE MESYLATE] | Compound metabolized
Cc1cn([C@H]2C[C@H](N=[N+]=[N-])[C@@H](CO)O2)c(=O)[nH]c1=O [ZIDOVUDINE] | Compound NOT metabolized
Nc1c2c(nc3ccccc13)CCCC2 [TACRINE] | Compound NOT metabolized
COc1ccc(CCN(C)CCCC(C#N)(c2ccc(OC)c(OC)c2)C(C)C)cc1OC (stereo not drawn) | Compound NOT metabolized

test: The drug is tested on Clostridium sporogenes strain: ATCC15579 for biotransformation. The drug concentrations were measured before and after a 12-h incubation by liquid-chromatography-coupled mass spectrometry (LC–MS); conditions: 2 µM

Compound | Bacterial Biotransformation
Cc1cn([C@H]2C[C@H](N=[N+]=[N-])[C@@H](CO)O2)c(=O)[nH]c1=O [ZIDOVUDINE] | Compound metabolized
Nc1c2c(nc3ccccc13)CCCC2 [TACRINE] | Compound NOT metabolized

test: The drug is tested on Coprococcus comes strain: ATCC27758 for biotransformation. The drug concentrations were measured before and after a 12-h incubation by liquid-chromatography-coupled mass spectrometry (LC–MS); type: ADME; set-up: dose 2 uM, timepoint 0 vs 12 hours; conditions: 2 µM

Compound | Bacterial Biotransformation
CS(=O)(=O)O.O.O.O.O=C1Cc2cc(CCN3CCN(c4nsc5ccccc45)CC3)c(Cl)cc2N1 [ZIPRASIDONE MESYLATE] | Compound NOT metabolized
Cc1cn([C@H]2C[C@H](N=[N+]=[N-])[C@@H](CO)O2)c(=O)[nH]c1=O [ZIDOVUDINE] | Compound metabolized
Nc1c2c(nc3ccccc13)CCCC2 [TACRINE] | Compound NOT metabolized
COc1ccc(CCN(C)CCCC(C#N)(c2ccc(OC)c(OC)c2)C(C)C)cc1OC (stereo not drawn) | Compound NOT metabolized

conditions: anaerostipes sp., 12 h, 2 µM

Compound | Bacterial Biotransformation
CS(=O)(=O)O.O.O.O.O=C1Cc2cc(CCN3CCN(c4nsc5ccccc45)CC3)c(Cl)cc2N1 [ZIPRASIDONE MESYLATE] | Compound NOT metabolized
Nc1c2c(nc3ccccc13)CCCC2 [TACRINE] | Compound NOT metabolized
COc1ccc(CCN(C)CCCC(C#N)(c2ccc(OC)c(OC)c2)C(C)C)cc1OC (stereo not drawn) | Compound NOT metabolized

conditions: segatella copri, 12 h, 2 µM

Compound | Bacterial Biotransformation
CS(=O)(=O)O.O.O.O.O=C1Cc2cc(CCN3CCN(c4nsc5ccccc45)CC3)c(Cl)cc2N1 [ZIPRASIDONE MESYLATE] | Compound NOT metabolized
Cc1cn([C@H]2C[C@H](N=[N+]=[N-])[C@@H](CO)O2)c(=O)[nH]c1=O [ZIDOVUDINE] | Compound NOT metabolized
Nc1c2c(nc3ccccc13)CCCC2 [TACRINE] | Compound NOT metabolized
COc1ccc(CCN(C)CCCC(C#N)(c2ccc(OC)c(OC)c2)C(C)C)cc1OC (stereo not drawn) | Compound metabolized

conditions: roseburia intestinalis, 12 h, 2 µM
Description: The drug is tested on Roseburia intestinalis strain: L1-82 for biotransformation. The drug concentrations were measured before and after a 12-h incubation by liquid-chromatography-coupled mass spectrometry (LC–MS)

Compound | Bacterial Biotransformation
CS(=O)(=O)O.O.O.O.O=C1Cc2cc(CCN3CCN(c4nsc5ccccc45)CC3)c(Cl)cc2N1 [ZIPRASIDONE MESYLATE] | Compound NOT metabolized
Cc1cn([C@H]2C[C@H](N=[N+]=[N-])[C@@H](CO)O2)c(=O)[nH]c1=O [ZIDOVUDINE] | Compound metabolized
Nc1c2c(nc3ccccc13)CCCC2 [TACRINE] | Compound NOT metabolized

test: The drug is tested on Bacteroides xylanisolvens strain: DSM18836 for biotransformation. The drug concentrations were measured before and after a 12-h incubation by liquid-chromatography-coupled mass spectrometry (LC–MS); conditions: 2 µM

Compound | Bacterial Biotransformation
CS(=O)(=O)O.O.O.O.O=C1Cc2cc(CCN3CCN(c4nsc5ccccc45)CC3)c(Cl)cc2N1 [ZIPRASIDONE MESYLATE] | Compound NOT metabolized
Cc1cn([C@H]2C[C@H](N=[N+]=[N-])[C@@H](CO)O2)c(=O)[nH]c1=O [ZIDOVUDINE] | Compound metabolized
Nc1c2c(nc3ccccc13)CCCC2 [TACRINE] | Compound NOT metabolized
COc1ccc(CCN(C)CCCC(C#N)(c2ccc(OC)c(OC)c2)C(C)C)cc1OC (stereo not drawn) | Compound metabolized

test: The drug is tested on Bifidobacterium ruminantium strain: fecal isolate for biotransformation. The drug concentrations were measured before and after a 12-h incubation by liquid-chromatography-coupled mass spectrometry (LC–MS); conditions: 2 µM

Compound | Bacterial Biotransformation
CS(=O)(=O)O.O.O.O.O=C1Cc2cc(CCN3CCN(c4nsc5ccccc45)CC3)c(Cl)cc2N1 [ZIPRASIDONE MESYLATE] | Compound NOT metabolized
Nc1c2c(nc3ccccc13)CCCC2 [TACRINE] | Compound NOT metabolized
COc1ccc(CCN(C)CCCC(C#N)(c2ccc(OC)c(OC)c2)C(C)C)cc1OC (stereo not drawn) | Compound NOT metabolized

test: The drug is tested on Odoribacter splanchnicus strain: fecal isolate for biotransformation. The drug concentrations were measured before and after a 12-h incubation by liquid-chromatography-coupled mass spectrometry (LC–MS); conditions: 2 µM

Compound | Bacterial Biotransformation
Cc1cn([C@H]2C[C@H](N=[N+]=[N-])[C@@H](CO)O2)c(=O)[nH]c1=O [ZIDOVUDINE] | Compound NOT metabolized
COc1ccc(CCN(C)CCCC(C#N)(c2ccc(OC)c(OC)c2)C(C)C)cc1OC (stereo not drawn) | Compound metabolized

test: The drug is tested on Ruminococcus torques strain: ATCC27756 for biotransformation. The drug concentrations were measured before and after a 12-h incubation by liquid-chromatography-coupled mass spectrometry (LC–MS); type: ADME; set-up: dose 2 uM, timepoint 0 vs 12 hours; conditions: 2 µM

Compound | Bacterial Biotransformation
CS(=O)(=O)O.O.O.O.O=C1Cc2cc(CCN3CCN(c4nsc5ccccc45)CC3)c(Cl)cc2N1 [ZIPRASIDONE MESYLATE] | Compound NOT metabolized
Cc1cn([C@H]2C[C@H](N=[N+]=[N-])[C@@H](CO)O2)c(=O)[nH]c1=O [ZIDOVUDINE] | Compound NOT metabolized
Nc1c2c(nc3ccccc13)CCCC2 [TACRINE] | Compound NOT metabolized
COc1ccc(CCN(C)CCCC(C#N)(c2ccc(OC)c(OC)c2)C(C)C)cc1OC (stereo not drawn) | Compound NOT metabolized

test: The drug is tested on Ruminococcus lactaris strain: ATCC29176 for biotransformation. The drug concentrations were measured before and after a 12-h incubation by liquid-chromatography-coupled mass spectrometry (LC–MS); conditions: 2 µM

Compound | Bacterial Biotransformation
CS(=O)(=O)O.O.O.O.O=C1Cc2cc(CCN3CCN(c4nsc5ccccc45)CC3)c(Cl)cc2N1 [ZIPRASIDONE MESYLATE] | Compound NOT metabolized
Cc1cn([C@H]2C[C@H](N=[N+]=[N-])[C@@H](CO)O2)c(=O)[nH]c1=O [ZIDOVUDINE] | Compound NOT metabolized
Nc1c2c(nc3ccccc13)CCCC2 [TACRINE] | Compound NOT metabolized
COc1ccc(CCN(C)CCCC(C#N)(c2ccc(OC)c(OC)c2)C(C)C)cc1OC (stereo not drawn) | Compound NOT metabolized

test: The drug is tested on Enterococcus faecalis strain: V583 for biotransformation. The drug concentrations were measured before and after a 12-h incubation by liquid-chromatography-coupled mass spectrometry (LC–MS); conditions: 2 µM

Compound | Bacterial Biotransformation
CS(=O)(=O)O.O.O.O.O=C1Cc2cc(CCN3CCN(c4nsc5ccccc45)CC3)c(Cl)cc2N1 [ZIPRASIDONE MESYLATE] | Compound NOT metabolized
Cc1cn([C@H]2C[C@H](N=[N+]=[N-])[C@@H](CO)O2)c(=O)[nH]c1=O [ZIDOVUDINE] | Compound NOT metabolized
Nc1c2c(nc3ccccc13)CCCC2 [TACRINE] | Compound NOT metabolized
COc1ccc(CCN(C)CCCC(C#N)(c2ccc(OC)c(OC)c2)C(C)C)cc1OC (stereo not drawn) | Compound NOT metabolized

test: The drug is tested on Bacteroides fragilis strain: HMW615 for biotransformation. The drug concentrations were measured before and after a 12-h incubation by liquid-chromatography-coupled mass spectrometry (LC–MS); conditions: 2 µM

Compound | Bacterial Biotransformation
CS(=O)(=O)O.O.O.O.O=C1Cc2cc(CCN3CCN(c4nsc5ccccc45)CC3)c(Cl)cc2N1 [ZIPRASIDONE MESYLATE] | Compound NOT metabolized
Cc1cn([C@H]2C[C@H](N=[N+]=[N-])[C@@H](CO)O2)c(=O)[nH]c1=O [ZIDOVUDINE] | Compound NOT metabolized
Nc1c2c(nc3ccccc13)CCCC2 [TACRINE] | Compound NOT metabolized
COc1ccc(CCN(C)CCCC(C#N)(c2ccc(OC)c(OC)c2)C(C)C)cc1OC (stereo not drawn) | Compound NOT metabolized

conditions: akkermansia muciniphila, 12 h, 2 µM

Compound | Bacterial Biotransformation
CS(=O)(=O)O.O.O.O.O=C1Cc2cc(CCN3CCN(c4nsc5ccccc45)CC3)c(Cl)cc2N1 [ZIPRASIDONE MESYLATE] | Compound NOT metabolized
Cc1cn([C@H]2C[C@H](N=[N+]=[N-])[C@@H](CO)O2)c(=O)[nH]c1=O [ZIDOVUDINE] | Compound NOT metabolized
COc1ccc(CCN(C)CCCC(C#N)(c2ccc(OC)c(OC)c2)C(C)C)cc1OC (stereo not drawn) | Compound metabolized

test: The drug is tested on Providencia rettgeri strain: DSM1131 for biotransformation. The drug concentrations were measured before and after a 12-h incubation by liquid-chromatography-coupled mass spectrometry (LC–MS); type: ADME; set-up: dose 2 uM, timepoint 0 vs 12 hours; conditions: 2 µM

Compound | Bacterial Biotransformation
CS(=O)(=O)O.O.O.O.O=C1Cc2cc(CCN3CCN(c4nsc5ccccc45)CC3)c(Cl)cc2N1 [ZIPRASIDONE MESYLATE] | Compound NOT metabolized
Cc1cn([C@H]2C[C@H](N=[N+]=[N-])[C@@H](CO)O2)c(=O)[nH]c1=O [ZIDOVUDINE] | Compound NOT metabolized
COc1ccc(CCN(C)CCCC(C#N)(c2ccc(OC)c(OC)c2)C(C)C)cc1OC (stereo not drawn) | Compound NOT metabolized

test: The drug is tested on Eubacterium ventriosum strain: ATCC27560 for biotransformation. The drug concentrations were measured before and after a 12-h incubation by liquid-chromatography-coupled mass spectrometry (LC–MS); type: ADME; set-up: dose 2 uM, timepoint 0 vs 12 hours; conditions: 2 µM

Compound | Bacterial Biotransformation
CS(=O)(=O)O.O.O.O.O=C1Cc2cc(CCN3CCN(c4nsc5ccccc45)CC3)c(Cl)cc2N1 [ZIPRASIDONE MESYLATE] | Compound NOT metabolized
Nc1c2c(nc3ccccc13)CCCC2 [TACRINE] | Compound NOT metabolized
